Measured values from ChEMBL document CHEMBL1201862, “PubChem BioAssay data set” (2004).
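Test compounds were applied to cells in 96-well plates for 48 hours at 5 doses. GI50 marks 50% less growth.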 Activity calls are given as the source filed them. Rule as the data show it: active = GI50 up to about 1.1 µM and inactive = higher.

Key:
Assay in all cases: inhibition of tumour cell growth, NCI panel, 48 h
KM12 = system: KM12
HL-60 = system: HL-60
OVCAR-3 = system: OVCAR-3
MDA-N = system: MDA-N
MDA-MB-435 = system: MDA-MB-435
SN12C = system: SN12C
SNB-75 = system: SNB-75
LOX IMVI = system: LOX IMVI
SK-MEL-2 = system: SK-MEL-2
Malme-3M = system: Malme-3M
CAKI-1 = system: CAKI-1
OVCAR-5 = system: OVCAR-5
SW-620 = system: SW-620
SK-OV-3 = system: SK-OV-3
HCT-116 = system: HCT-116
A549 = system: A549
K562 = system: K562
OVCAR-4 = system: OVCAR-4
SK-MEL-5 = system: SK-MEL-5
TK-10 = system: TK-10
RXF 393 = system: RXF 393
MCF7 = system: MCF7
ACHN = system: ACHN
PC-3 = system: PC-3
SK-MEL-28 = system: SK-MEL-28
786-0 = system: 786-0
COLO 205 = system: COLO 205
SNB-19 = system: SNB-19
NCI/ADR-RES = system: NCI/ADR-RES
U-251 = system: U-251
HCT-15 = system: HCT-15
SF-295 = system: SF-295
NCI-H23 = system: NCI-H23
DU-145 = system: DU-145
T47D = system: T47D
CCRF-CEM = system: CCRF-CEM
UACC-257 = system: UACC-257
HT-29 = system: HT-29
SF-268 = system: SF-268
SF-539 = system: SF-539
RPMI-8226 = system: RPMI-8226
UACC-62 = system: UACC-62
NCI-H522 = system: NCI-H522
UO-31 = system: UO-31
OVCAR-8 = system: OVCAR-8
NCI-H226 = system: NCI-H226
EKVX = system: EKVX
MOLT-4 = system: MOLT-4
M14 = system: M14
IGROV-1 = system: IGROV-1
HOP-92 = system: HOP-92
MDA-MB-231 = system: MDA-MB-231
NCI-H460 = system: NCI-H460
HCC 2998 = system: HCC 2998
SR = system: SR
HOP-62 = system: HOP-62
A498 = system: A498

N#CC(C#N)=Cc1ccc2c(c1)OC(Cl)O2 (stereo not given)
GI50 (KM12): 20.4 µM (inactive)
GI50 (HL-60): 6.92 µM (inactive)
GI50 (OVCAR-3): 22.1 µM (inactive)
GI50 (MDA-N): 16 µM (inactive)
GI50 (MDA-MB-435): 14.3 µM (inactive)
GI50 (SN12C): 24.9 µM (inactive)
GI50 (SNB-75): 25.8 µM (inactive)
GI50 (LOX IMVI): 18.4 µM (inactive)
GI50 (SK-MEL-2): 21.9 µM (inactive)
GI50 (Malme-3M): 18.1 µM (inactive)
GI50 (CAKI-1): > 100 µM (inactive)
GI50 (OVCAR-5): 20.9 µM (inactive)
GI50 (SW-620): > 10 µM (inactive)
GI50 (SK-OV-3): 28.5 µM (inactive)
GI50 (HCT-116): 18.9 µM (inactive)
GI50 (A549): 38.8 µM (inactive)
GI50 (K562): 11.8 µM (inactive)
GI50 (OVCAR-4): 42.2 µM (inactive)
GI50 (SK-MEL-5): 19.1 µM (inactive)
GI50 (TK-10): 29.6 µM (inactive)
GI50 (RXF 393): 28.5 µM (inactive)
GI50 (MCF7): 24.4 µM (inactive)
GI50 (ACHN): 19.9 µM (inactive)
GI50 (PC-3): 23.2 µM (inactive)
GI50 (SK-MEL-28): 19.9 µM (inactive)
GI50 (786-0): 20.3 µM (inactive)
GI50 (COLO 205): 24.3 µM (inactive)
GI50 (SNB-19): 26.4 µM (inactive)
GI50 (NCI/ADR-RES): 42.1 µM (inactive)
GI50 (U-251): 23.2 µM (inactive)
GI50 (HCT-15): 19.9 µM
GI50 (SF-295): 19.3 µM (inactive)
GI50 (NCI-H23): 31.1 µM (inactive)
GI50 (DU-145): 27.7 µM (inactive)
GI50 (T47D): 32.4 µM (inactive)
GI50 (CCRF-CEM): 20.4 µM (inactive)
GI50 (UACC-257): 21.7 µM (inactive)
GI50 (HT-29): 23.8 µM (inactive)
GI50 (SF-268): 29.4 µM (inactive)
GI50 (SF-539): 20.4 µM (inactive)
GI50 (RPMI-8226): 17.8 µM (inactive)
GI50 (UACC-62): 22.5 µM (inactive)
GI50 (NCI-H522): > 10 µM (inactive)
GI50 (UO-31): 16.9 µM (inactive)
GI50 (OVCAR-8): 31.6 µM (inactive)
GI50 (NCI-H226): 20.2 µM (inactive)
GI50 (EKVX): 27.4 µM (inactive)
GI50 (MOLT-4): 29.8 µM (inactive)
GI50 (M14): 21.4 µM (inactive)

CCC1=[N+]([O-])C(C)(C)NC1(C)C
GI50 (KM12): > 10 µM (inactive)
GI50 (OVCAR-3): > 10 µM (inactive)
GI50 (MDA-N): > 10 µM (inactive)
GI50 (MDA-MB-435): > 10 µM (inactive)
GI50 (SN12C): > 10 µM (inactive)
GI50 (SNB-75): > 10 µM (inactive)
GI50 (IGROV-1): > 10 µM (inactive)
GI50 (CAKI-1): > 10 µM (inactive)
GI50 (OVCAR-5): > 10 µM (inactive)
GI50 (SW-620): > 10 µM (inactive)
GI50 (HCT-116): > 10 µM (inactive)
GI50 (A549): > 10 µM (inactive)
GI50 (OVCAR-4): > 10 µM (inactive)
GI50 (SK-MEL-5): > 10 µM (inactive)
GI50 (TK-10): > 10 µM (inactive)
GI50 (RXF 393): > 10 µM (inactive)
GI50 (ACHN): > 10 µM (inactive)
GI50 (PC-3): > 10 µM (inactive)
GI50 (SK-MEL-28): > 10 µM (inactive)
GI50 (COLO 205): > 10 µM (inactive)
GI50 (SNB-19): > 10 µM (inactive)
GI50 (NCI/ADR-RES): > 10 µM (inactive)
GI50 (U-251): > 10 µM (inactive)
GI50 (HCT-15): > 10 µM
GI50 (SF-295): > 10 µM (inactive)
GI50 (NCI-H23): > 10 µM (inactive)
GI50 (DU-145): > 10 µM (inactive)
GI50 (HOP-92): > 10 µM (inactive)
GI50 (HT-29): > 10 µM (inactive)
GI50 (SF-268): > 10 µM (inactive)
GI50 (SF-539): > 10 µM (inactive)
GI50 (MDA-MB-231): > 10 µM (inactive)
GI50 (OVCAR-8): > 10 µM (inactive)
GI50 (NCI-H226): 4.95 µM (inactive)
GI50 (EKVX): > 10 µM (inactive)
GI50 (M14): > 10 µM (inactive)

O=C(Nc1nccs1)c1cc2c(cc1Cl)Sc1nccn1S2(=O)=O
GI50 (MDA-MB-435): 17.2 µM (inactive)
GI50 (COLO 205): 16.7 µM (inactive)
GI50 (NCI-H460): 16 µM (inactive)
GI50 (HOP-92): 15.3 µM (inactive)

COc1ccc(/C=C\c2cc(OC)c(OC)c(OC)c2)cc1OC(=O)C(N)CCC(=O)O (stereo not given)
GI50 (A549): 0.000944 µM (active)
GI50 (MCF7): 0.00187 µM (active)
GI50 (786-0): 0.000792 µM (active)
GI50 (HT-29): 2.34 µM (inactive)
GI50 (NCI-H226): 0.00123 µM (active)

CCOC(=O)C(NC(=O)CC)(C(F)(F)F)P(=O)(OCC)OCC (stereo not given)
GI50 (HL-60): > 100 µM (inactive)
GI50 (MDA-N): > 100 µM (inactive)
GI50 (MDA-MB-435): > 100 µM (inactive)
GI50 (SN12C): > 100 µM (inactive)
GI50 (SNB-75): > 100 µM (inactive)
GI50 (HCC 2998): > 100 µM (inactive)
GI50 (Malme-3M): > 100 µM (inactive)
GI50 (SR): > 100 µM (inactive)
GI50 (SK-OV-3): > 100 µM (inactive)
GI50 (HCT-116): > 100 µM (inactive)
GI50 (K562): > 100 µM (inactive)
GI50 (MCF7): > 100 µM (inactive)
GI50 (ACHN): > 100 µM (inactive)
GI50 (SK-MEL-28): > 100 µM (inactive)
GI50 (HOP-62): > 100 µM (inactive)
GI50 (U-251): > 100 µM (inactive)
GI50 (HCT-15): > 100 µM
GI50 (DU-145): > 100 µM (inactive)
GI50 (T47D): > 100 µM (inactive)
GI50 (CCRF-CEM): > 100 µM (inactive)
GI50 (A498): > 100 µM (inactive)
GI50 (HT-29): > 100 µM (inactive)
GI50 (SF-268): > 100 µM (inactive)
GI50 (SF-539): > 100 µM (inactive)
GI50 (RPMI-8226): > 100 µM (inactive)
GI50 (UACC-62): > 100 µM (inactive)
GI50 (NCI-H522): > 100 µM (inactive)
GI50 (MDA-MB-231): > 100 µM (inactive)
GI50 (UO-31): > 100 µM (inactive)
GI50 (EKVX): > 100 µM (inactive)
GI50 (MOLT-4): > 100 µM (inactive)
GI50 (M14): > 100 µM (inactive)

C=CCNc1nc2c(N)ncnc2s1
GI50 (HL-60): > 10 µM (inactive)
GI50 (MDA-MB-435): > 10 µM (inactive)
GI50 (SNB-75): > 10 µM (inactive)
GI50 (IGROV-1): > 10 µM (inactive)
GI50 (SK-MEL-2): > 10 µM (inactive)
GI50 (Malme-3M): > 10 µM (inactive)
GI50 (CAKI-1): > 10 µM (inactive)
GI50 (SR): > 10 µM (inactive)
GI50 (OVCAR-5): > 10 µM (inactive)
GI50 (SW-620): > 10 µM (inactive)
GI50 (SK-OV-3): > 10 µM (inactive)
GI50 (A549): > 10 µM (inactive)
GI50 (K562): > 10 µM (inactive)
GI50 (OVCAR-4): > 10 µM (inactive)
GI50 (SK-MEL-5): > 10 µM (inactive)
GI50 (RXF 393): > 10 µM (inactive)
GI50 (MCF7): > 10 µM (inactive)
GI50 (ACHN): > 10 µM (inactive)
GI50 (SK-MEL-28): > 10 µM (inactive)
GI50 (786-0): > 10 µM (inactive)
GI50 (COLO 205): > 10 µM (inactive)
GI50 (NCI-H460): > 10 µM (inactive)
GI50 (NCI/ADR-RES): > 10 µM (inactive)
GI50 (HOP-62): > 10 µM (inactive)
GI50 (U-251): > 10 µM (inactive)
GI50 (NCI-H23): > 10 µM (inactive)
GI50 (HOP-92): > 10 µM (inactive)
GI50 (T47D): > 10 µM (inactive)
GI50 (CCRF-CEM): > 10 µM (inactive)
GI50 (SF-268): > 10 µM (inactive)
GI50 (RPMI-8226): > 10 µM (inactive)
GI50 (UACC-62): > 10 µM (inactive)
GI50 (MOLT-4): > 10 µM (inactive)
GI50 (M14): > 10 µM (inactive)

CC(=O)OC(C)c1cc2c(s1)C(=O)c1c(C(C)OC(C)=O)csc1C2=O (stereo not given)
GI50 (KM12): 1.25 µM (inactive)
GI50 (SN12C): 0.682 µM (active)
GI50 (SNB-75): 2.74 µM (inactive)
GI50 (HCC 2998): 1.73 µM (inactive)
GI50 (IGROV-1): 1.68 µM (inactive)
GI50 (SR): > 100 µM (inactive)
GI50 (OVCAR-5): 1.97 µM (inactive)
GI50 (SW-620): 0.0545 µM (active)
GI50 (SK-OV-3): 3.6 µM (inactive)
GI50 (HCT-116): 1.66 µM (inactive)
GI50 (A549): 1.97 µM (inactive)
GI50 (K562): 1.01 µM (active)
GI50 (OVCAR-4): 1.3 µM (inactive)
GI50 (TK-10): 2.29 µM (inactive)
GI50 (RXF 393): 1.31 µM (inactive)
GI50 (MCF7): 0.662 µM (active)
GI50 (ACHN): 1.42 µM (inactive)
GI50 (PC-3): 2.3 µM (inactive)
GI50 (786-0): 1.89 µM (inactive)
GI50 (COLO 205): 1.91 µM (inactive)
GI50 (NCI-H460): 0.5 µM (active)
GI50 (NCI/ADR-RES): 1.26 µM (inactive)
GI50 (HOP-62): 1.24 µM (inactive)
GI50 (U-251): 1.18 µM (inactive)
GI50 (HCT-15): 1.58 µM
GI50 (SF-295): 1.28 µM (inactive)
GI50 (DU-145): 0.586 µM (active)
GI50 (HOP-92): 3.29 µM (inactive)
GI50 (T47D): 1.85 µM (inactive)
GI50 (CCRF-CEM): 1.49 µM (inactive)
GI50 (A498): 2.13 µM (inactive)
GI50 (HT-29): 2.21 µM (inactive)
GI50 (SF-268): 3.01 µM (inactive)
GI50 (SF-539): 1.11 µM (active)
GI50 (RPMI-8226): 1.43 µM (inactive)
GI50 (MDA-MB-231): 1.55 µM (inactive)
GI50 (UO-31): 1.55 µM (inactive)
GI50 (NCI-H226): 1.37 µM (inactive)
GI50 (EKVX): 1.74 µM (inactive)
GI50 (MOLT-4): 1.95 µM (inactive)
